From patent US20120157421A1, “17Beta-Alkyl-17Alpha-oxy-estratrienes” (BAYER PHARMA AKTIENGESELLSCHAFT, priority 2009, published 2012)

Columns and labels:
[1] = system: uterus growth in rats with simultaneous administration of oestradiol benzoate (EB); assay: uterus growth test in infant rats, p.o. (test for antioestrogen action); assay type: in vivo, rat; details: inhibition of uterus growth relative to EB control; infant female rats; 0.5 μg EB/0.1 ml s.c. plus test compound p.o. in the range of 0.03 mg/kg body weight, once daily for three days
Procedure: To examine the efficacy of the compounds according to the invention, in vivo tests with infant rats were carried out. To this end, the growth of the uterus with peroral administration (p.o.) of the pharmaceutical was examined (test for antioestrogen action).
The principle of this method is to investigate the effect of an administration of compounds having antioestrogen action with simultaneous administration of oestrogens. In rodents, the administration of oestrogens results in an increased weight of the uterus (both by proliferation and by hydropexia). This growth can be inhibited in a dosage-related manner by simultaneous administration of compounds with antioestrogen action.
For the tests, infant female rats having a weight of 35-45 g were examined at the start of the experiment. Five to six animals per dose were tested. For the p.o. administration, the substances were dissolved in one part of ethanol (E) and made up with nine parts of peanut oil (PO). For acclimatization, the young rats just dropped by the mothers were delivered one day before the start of the treatment and immediately supplied with food—right in the cage. For three days, the animals were then treated in combination with 0.5 μg of oestradiol benzoate (EB) once per day. EB was always administrated subcutaneously (s.c.), whereas the test substance was administered p.o. 24 hours after the last administration, the animals were weighed and killed, and the uteri were removed. The moist weights (less contents) of the prepared uteri were determined. The following control studies were carried out: for a negative control, 0.2 ml of an E/PO mixture was administered per animal and day. […]
For each group, the means with standard deviation (X±SD) and the significance of the differences to the control group (EB) of the relative organ weights (mg/100 g of body weight) were determined in the Dunnett test (p<0.05). The inhibition (in %) relative to the EB control was determined using a calculation programme. The relative efficacy of the test substances was calculated by covariance and regression analysis.

[2] = metabolic stability in human liver microsomes; assay type: in vitro ADME; details: estimated maximum oral bioavailability from human liver microsome incubation; 0.3 μM, 0.5 mg/ml protein, 37° C., 60 min
Procedure: The metabolic stability of test substances was determined by incubations in a suspension with human liver microsomes adjusted to a protein content of 0.5 mg/ml, at a concentration of 0.3 μM. The incubation volume was 3.03 ml, where 2.4 ml of a microsome suspension in phosphate buffer at pH 7.4 (sodium phosphate buffer 100 mM (NaH2PO4×H2O+Na2HPO4×2H2O) were initially charged, which were activated by addition of 0.6 ml of a cofactor mix (consisting of 1.2 mg of NADP, 3 IU of glucose 6-phosphate dehydrogenase, 14.6 mg of glucose 6-phosphate and 4.9 mg of MgCl2 in phosphate buffer, pH 7.4). The assay was started by addition of 30 μL of a test substance stock solution, where the composition of the stock solution was such that the solvent concentrations during the incubation were <0.2% for DMSO and <1% for methanol. The incubations were carried out at an incubation temperature of 37° C. over a period of 60 minutes, during which time the microsomes were kept in a homogeneous suspension by continuous stirring (Tec Control Shaker RS 485 at 300 rpm). At 6 different points in time (2, 8, 16, 30, 45 & 60 min), aliquots of in each case 250 μl were removed and immediately added to the same volume of ice-cold methanol and covered.
The decrease in concentrations over time were used to determine the half-life of the test substance in the microsomal incubation mixture described above, which in turn was used to calculate the “intrinsic clearance”, the maximum liver microsome rate for the metabolic elimination of the test substance. This “intrinsic clearance” for its part can be used together with various physiological parameters to estimate the maximum metabolic clearance in man, where the principle mentioned above is only capable of representing phase I metabolic reactions (typically: oxidoreductive reactions of Zytochrom P450 enzymes or flavin monooxigenase, and also hydrolytic reactions of esterases and amidases). Physiological parameters are: human liver blood flow: 1.3 l/kg/h; specific liver weight (per kg of body weight): 21 g/kg; microsomal protein content: 40 mg/g of liver. Furthermore, assuming that (i) the resorption of the test substance in humans is 100%, and (ii) the estimated metabolic clearance can be calculated as first pass, a maximum oral bioavailability (Fmax) was estimated.
Formulae & brief illustrations: CL intrinsic-apparent [in ml/(min*mg of protein)]: reflects the elimination constant kel (in min-1) of the test substance in the incubation mixture, divided by the microsomal protein content ([…]). CL intrinsic [in l(h*kg)]: maximum capability of the liver (microsomes) for metabolic elimination of the test substance, unless the liver blood flow is the limiting factor (kel*liver weight)/liver proportion (microsomal content) in the incubation. CL blood-well stirred [in l/(h*kg)]: estimated blood clearance (via Phase 1 metabolism): (QH*CL intrinsic)/(QH+CL intrinsic). Fmax [in %]: maximum bioavailability after oral administration of the test substance: (1-CL blood-well stirred/QH)*100.

SMILES | Inhibition [%] [1] | Fmax (micros.) [%] [2]
CN(CCCCCCCC(F)(F)C(F)(F)F)CCCCCC1Cc2cc(O)ccc2C2[C@@H]1C1CC[C@@](C)(O)[C@@]1(C)C[C@@H]2F (stereo partly drawn) [Example 1, [5-(11β-Fluoro-3,17α-dihydroxy-17β-methyloestra-1,3,5(10)-trien-7α-yl)pentyl](methyl)(8,8,9,9,9-pentafluorononyl)amine] | 42-59% | 39%
C[C@]12C[C@H](F)C3c4ccc(O)cc4CC(CCCCCN4CCC[C@H]4CCCCCCC(F)(F)C(F)(F)F)[C@H]3C1CC[C@@]2(C)O (stereo partly drawn) [Example 2, 11β-Fluoro-17β-methyl-7α-[5-[(2R)-2-(7,7,8,8,8-pentafluorooctyl)-1-pyrrolidinyl]pentyl]-oestra-1,3,5(10)-triene-3,17α-diol] | 70% | 36%
C[C@]12C[C@H](F)C3c4ccc(O)cc4CC(CCCCCN4CCC[C@H]4CCCCCC(F)(F)C(F)(F)F)[C@H]3C1CC[C@@]2(C)O (stereo partly drawn) [Example 3, 11β-Fluoro-17β-methyl-7α-[5-[(2R)-2-(6,6,7,7,7-pentafluoroheptyl)-1-pyrrolidinyl]pentyl]oestra-1,3,5(10)-triene-3,17α-diol] | 40% | 40%
CN(CCCCCCCC(F)(F)C(F)(F)F)CCCCCC1Cc2c(ccc(O)c2Cl)C2[C@@H]1C1CC[C@@](C)(O)[C@@]1(C)C[C@@H]2F (stereo partly drawn) [Example 4, 4-Chloro-11β-fluoro-17β-methyl-7α-[5-[methyl(8,8,9,9,9-pentafluorononyl)amino]pentyl]-oestra-1,3,5(10)-triene-3,17α-diol] | – | 39%
CN(CCCCCCCC(F)(F)C(F)(F)F)CCCCCC1Cc2c(ccc(O)c2Br)C2[C@@H]1C1CC[C@@](C)(O)[C@@]1(C)C[C@@H]2F (stereo partly drawn) [Example 5, 4-Bromo-11β-fluoro-17β-methyl-7α-[5-[methyl(8,8,9,9,9-pentafluorononyl)amino]pentyl]oestra-1,3,5(10)-triene-3,17α-diol] | – | 55%
C[C@]12C[C@H](F)C3c4ccc(O)c(Br)c4CC(CCCCCN4CCC[C@H]4CCCCCCC(F)(F)C(F)(F)F)[C@H]3C1CC[C@@]2(C)O (stereo partly drawn) [Example 6, 4-Bromo-11β-fluoro-17β-methyl-7α-[5-[(2R)-2-(7,7,8,8,8-pentafluorooctyl)-1-pyrrolidinyl]pentyl]oestra-1,3,5(10)-triene-3,17α-diol] | – | 34%
C[C@]12C[C@H](F)C3c4ccc(O)c(Cl)c4CC(CCCCCN4CCC[C@H]4CCCCCCC(F)(F)C(F)(F)F)[C@H]3C1CC[C@@]2(C)O (stereo partly drawn) [Example 7, 4-Chloro-11β-fluoro-17β-methyl-7α-[5-[(2R)-2-(7,7,8,8,8-pentafluorooctyl)-1-pyrrolidinyl]pentyl]oestra-1,3,5(10)-triene-3,17α-diol] | – | 47%
C[C@]12C[C@H](F)C3c4ccc(O)c(Br)c4CC(CCCCCN4CCC[C@H]4CCCCCC(F)(F)C(F)(F)F)[C@H]3C1CC[C@@]2(C)O (stereo partly drawn) [Example 8, 4-Bromo-11β-fluoro-17β-methyl-7α-[5-[(2R)-2-(6,6,7,7,7-pentafluoroheptyl)-1-pyrrolidinyl]pentyl]oestra-1,3,5(10)-triene-3,17α-diol] | – | 48%
C[C@]12C[C@H](F)C3c4ccc(O)c(Cl)c4CC(CCCCCN4CCC[C@H]4CCCCCC(F)(F)C(F)(F)F)[C@H]3C1CC[C@@]2(C)O (stereo partly drawn) [Example 9, 4-Chloro-11β-fluoro-17β-methyl-7α-[5-[(2R)-2-(6,6,7,7,7-pentafluoroheptyl)-1-pyrrolidinyl]pentyl]oestra-1,3,5(10)-triene-3,17α-diol] | – | 42%
C[C@]12C[C@H](F)C3c4cc(Cl)c(O)c(Cl)c4CC(CCCCCN4CCC[C@H]4CCCCCCC(F)(F)C(F)(F)F)[C@H]3C1CC[C@@]2(C)O (stereo partly drawn) [Example 10, 2,4-Dichloro-11β-fluoro-17β-methyl-7α-[5-[(2R)-2-(7,7,8,8,8-pentafluorooctyl)-1-pyrrolidinyl]pentyl]oestra-1,3,5(10)-triene-3,17α-diol] | – | 34%
CN(CCCCCCCC(F)(F)C(F)(F)F)CCCCCC1Cc2cc(O)ccc2C2[C@@H]1C1CC[C@](C)(O)[C@@]1(C)C[C@@H]2F (stereo partly drawn) [Example C1, 11β-Fluoro-17α-methyl-7α-[5-[methyl(8,8,9,9,9-pentafluorononyl)amino]pentyl]oestra-1,3,5(10)-triene-3,17β-diol, reference compound] | – | 9%
C[C@]1(O)CCC2[C@@H]3C(CCCCCN4CCC[C@H]4CCCCCCC(F)(F)C(F)(F)F)Cc4cc(O)ccc4C3[C@@H](F)C[C@@]21C (stereo partly drawn) [Example C2, 11β-Fluoro-17α-methyl-7α-[5-[(2R)-2-(7,7,8,8,8-pentafluorooctyl)-1-pyrrolidinyl]pentyl]-oestra-1,3,5(10)-triene-3,17β-diol, reference compound] | – | 9%
C[C@]1(O)CCC2[C@@H]3C(CCCCCN4CCC[C@H]4CCCCCC(F)(F)C(F)(F)F)Cc4cc(O)ccc4C3[C@@H](F)C[C@@]21C (stereo partly drawn) [Example C3, 11β-Fluoro-17α-methyl-7α-[5-[(2R)-2-(6,6,7,7,7-pentafluoroheptyl)-1-pyrrolidinyl]pentyl]oestra-1,3,5(10)-triene-3,17β-diol, reference compound] | – | 8%
